These results are taken from US6630472B1, “Compounds, pharmaceutical compositions, and methods for stimulating neuronal growth and elongation” (priority 1998, dated 2003).

One may read the inhibition as the share of the control response that was lost under treatment. A high value points to a response far below the control.

The structures appear in SMILES notation.

FKBP12, sequence (P62942 whole entry, species assumed): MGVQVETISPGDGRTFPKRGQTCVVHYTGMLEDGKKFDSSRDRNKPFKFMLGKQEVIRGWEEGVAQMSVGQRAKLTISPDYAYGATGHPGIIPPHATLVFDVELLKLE

The first assay addresses FKBP12 (Homo sapiens, UniProt P62942). Kind of assay: rotamase inhibition assay (N-succinyl-Ala-Ala-Pro-Phe-p-nitroanilide, chymotrypsin-coupled). The class given is biochemical. Conditions: @ 2.5 μM. As for the experimental part: In the rotamase inhibition assay, isomerization of an artificial substrate N-succinyl-Ala-Ala-Pro-Phe-p-nitroanilide is followed spectrophotometrically. The assay includes the cis form of the substrate, FKBP12, the compound being tested, and chymotrypsin. Chymotrypsin is able to cleave p-nitroaniline from the trans form of the substrate, but not from the cis form. Release of p-nitroaniline is measured spectrophotometrically. Using this assay, various amounts of the FKBP rotamase-inhibiting compounds of formula (I-a) or (I-b) were added to cis-N-succinyl-alanine-alanine-proline-phenylalanine-para-nitroaniline (Bachem, 3132 Kashiwa Street, Torrance, Calif. 90505) in the presence of FKBP12 and chymotrypsin. Spectrophotometric measurements of p-nitroaniline concentrations allowed estimation of the apparent Ki values, which are provided in Table 1 below.
The compound `CCCC(CCC)C(=O)OC[C@@H](CN1CC2CCCC(C1=O)N2C(=O)C(=O)C(C)(C)CC)OCc1ccccc1` (stereo partly drawn) [Compound 55] registered an inhibition at 2.5 µM of 40%. As for `CCCC(CCC)C(=O)OC[C@H](CN1CC2CCCC(C1=O)N2C(=O)C(=O)C(C)(C)CC)OCc1ccccc1` (stereo partly drawn) [Compound 56], 2.5 µM produced 40% inhibition.

The assay is the same for the next values; noted with them: apparent Ki; NI = no inhibition at the concentrations tested; read-out: Rotamase Ki(app).
As for `COc1cc(C(=O)C(=O)N2C3CCCC2C(=O)N(CCOCc2ccccc2)C3)cc(OC)c1OC` (stereo not drawn) [Compound 7], the Ki worked out at 0.16 µM. In the case of `COc1cccc2c1CCN1C(=O)C3CCCC(C21)N3C(=O)C(=O)c1cc(OC)c(OC)c(OC)c1` (stereo not drawn) [Compound 12], the Ki was 0.027 µM. In the case of `COc1cc(C(=O)C(=O)N2C3CCCC2C(=O)N(CCCCc2ccccc2)C3)cc(OC)c1OC` (stereo not drawn) [Compound 33], the Ki is 0.227 µM.

`COc1cc(C(=O)C(=O)N2C3CCCC2C(=O)N(Cc2ccccc2)C3=O)cc(OC)c1OC` [Compound 34]: the Ki turned out to be 0.206 µM. Still for that read-out and setting: the value for `COc1cc(C(=O)C(=O)N2C3CCCC2C(=O)N(CCCCc2ccccc2)C3=O)cc(OC)c1OC` [Compound 35] was 0.073 µM; that for `CCC(C)(C)C(=O)C(=O)N1C2CCCC1C(=O)N(CCCCc1ccccc1)C2=O` [Compound 36] was 0.445 µM.

Regarding `COc1cc(C(=O)C(=O)N2C3CCCC2C(OC)N(CCCCc2ccccc2)C3=O)cc(OC)c1OC` (stereo not drawn) [Compound 37], the Ki came out at 0.222 µM. On the same count and under the same terms, next, `COc1cc(C(=O)C(=O)N2C3CCCC2C(=O)N(CCCCCc2ccccc2)C3=O)cc(OC)c1OC` [Compound 38]: 0.298 µM; `O=C1C2CCCC(CN1CCOCc1ccccc1)N2C(=O)C(=O)C12CC3CC(CC(C3)C1)C2` (stereo not drawn) [Compound 40]: 0.69 µM.

In the case of `COc1cc(C(=O)C(=O)N2C3CCCC2C(=O)N(C2CCCC2)C3=O)cc(OC)c1OC` [Compound 41], the Ki stood at 5.8 µM. The same measure, in the same setting: next, `COc1cc(C(=O)C(=O)N2C3CCCC2C2OCC(COCc4ccccc4)N2C3=O)cc(OC)c1OC` (stereo not drawn) [Compound 42]: 2.2 µM. Still for that read-out and setting: next, `COc1cc(C(=O)C(=O)N2C3CCCC2C(=O)N(C2CCCCC2)C3)cc(OC)c1OC` (stereo not drawn) [Compound 44]: 3 µM; `COc1cc(C(=O)C(=O)N2C3CCCC2C(=O)N(C[C@H](CO)OCc2ccccc2)C3)cc(OC)c1OC` (stereo partly drawn) [Compound 45]: 0.58 µM; `CCCC(CCC)C(=O)OC[C@@H](CN1CC2CCCC(C1=O)N2C(=O)C(=O)c1cc(OC)c(OC)c(OC)c1)OCc1ccccc1` (stereo partly drawn) [Compound 46]: 0.448 µM.

In the case of `CCCC(CCC)C(=O)OC[C@H](CN1CC2CCCC(C1=O)N2C(=O)C(=O)c1cc(OC)c(OC)c(OC)c1)OCc1ccccc1` (stereo partly drawn) [Compound 47], the Ki stood at 0.2 µM.

For `COc1cc(C(=O)C(=O)N2C3CCCC2C(=O)N(C[C@@H](CO)OCc2ccccc2)C3)cc(OC)c1OC` (stereo partly drawn) [Compound 50], the Ki was 0.56 µM. Still for that read-out and setting: next, `COc1cc(C(=O)C(=O)N2C3CCCC2C(=O)N(C(CO)COCc2ccccc2)C3)cc(OC)c1OC` (stereo not drawn) [Compound 51]: 4 µM; `COc1cc(C(=O)C(=O)N2C3CCCC2C(=O)N(C(COCc2ccccc2)COC(C)=O)C3)cc(OC)c1OC` (stereo not drawn) [Compound 53]: 5 µM; `CC(C)[C@@H]1CC[C@@H](C)[C@](C)(C(=O)C(=O)N2C3CCCC2C(=O)N(CCOCc2ccccc2)C3)C1` (stereo partly drawn) [Compound 54]: 6 µM. For `CCC(C)(C)C(=O)C(=O)N1C2CCCC1C(=O)N(C1CCCCC1)C2` (stereo not drawn) [Compound 57], the Ki was determined as 74 µM. The same measure, in the same setting: the value for `CCC(C)(C)C(=O)C(=O)N1C2CCCC1C(=O)N(C[C@H](CO)OCc1ccccc1)C2` (stereo partly drawn) [Compound 58] was 3 µM; that for `CCC(C)(C)C(=O)C(=O)N1C2CCCC1C(=O)N(C[C@@H](CO)OCc1ccccc1)C2` (stereo partly drawn) [Compound 59] was 3.8 µM; that for `CC(=O)OCC(C)(C)C(=O)C(=O)N1C2CCCC1C(=O)N(CCCCc1ccccc1)C2` (stereo not drawn) [Compound 60] was 3 µM.

As to `CCC(CC)(COC(C)=O)C(=O)C(=O)N1C2CCCC1C(=O)N(CCCCc1ccccc1)C2` (stereo not drawn) [Compound 61], the Ki was found to be 0.79 µM. Still for that read-out and setting: the value for `CC(=O)OCC1(C(=O)C(=O)N2C3CCCC2C(=O)N(CCCCc2ccccc2)C3)CCCC1` (stereo not drawn) [Compound 62] was 0.16 µM; that for `COCOCC(C)(C)C(=O)C(=O)N1C2CCCC1C(=O)N(CCCCc1ccccc1)C2` (stereo not drawn) [Compound 63] was 3.1 µM; that for `CCC(CC)C(=O)C(=O)N1C2CCCC1C(=O)N(CCCCc1ccccc1)C2` (stereo not drawn) [Compound 68] was 2.5 µM.

`CCC(C)(C)C(=O)C(=O)N1C2CCCC1C(=O)N(C1CCCC1)C2` (stereo not drawn) [Compound 69]: the Ki worked out at 33 µM.

On to `C=CCC(CC=C)C(=O)OC[C@H](CN1CC2CCCC(C1=O)N2C(=O)C(=O)C(C)(C)CC)OCc1ccccc1` (stereo partly drawn) [Compound 70], for which the Ki was found to be 0.89 µM. Regarding `COc1cc(C(=O)C(=O)N2C3CCCC2C(=O)N([C@H]2CCC[C@@H]2OCc2ccccc2)C3)cc(OC)c1OC` (stereo partly drawn) [Compound 71], the Ki was determined as 4.7 µM.

On to `COc1cc(C(=O)C(=O)N2C3CCCC2C(=O)N([C@H]2CCC[C@@H]2OCc2ccccc2)C3)cc(OC)c1OC` (stereo partly drawn) [Compound 72], for which the Ki stood at 0.24 µM.

Regarding `C=CCC(CC=C)C(=O)OC[C@H](CN1CC2CCCC(C1=O)N2C(=O)C(=O)c1cc(OC)c(OC)c(OC)c1)OCc1ccccc1` (stereo partly drawn) [Compound 73], the Ki is 0.063 µM. On the same count and under the same terms, the value for `COc1ccc2c(c1)C(OC)C1C3CCCC(C(=O)N1C2)N3C(=O)C(=O)c1cc(OC)c(OC)c(OC)c1` (stereo not drawn) [Compound 74] was 0.111 µM. The same measure, in the same setting: next, `C=CCC(CC=C)C(=O)OC[C@@H](CN1CC2CCCC(C1=O)N2C(=O)C(=O)C(C)(C)CC)OCc1ccccc1` (stereo partly drawn) [Compound 75]: 0.79 µM.

As to `C=CCC(CC=C)C(=O)OC[C@@H](CN1CC2CCCC(C1=O)N2C(=O)C(=O)c1cc(OC)c(OC)c(OC)c1)OCc1ccccc1` (stereo partly drawn) [Compound 76], the Ki amounted to 0.112 µM. For `CCC(C)(C)C(=O)C(=O)N1C2CCCC1C(=O)N([C@H]1CCC[C@@H]1OCc1ccccc1)C2` (stereo partly drawn) [Compound 77], the Ki worked out at 20.5 µM. The same measure, in the same setting: next, `CCC(C)(C)C(=O)C(=O)N1C2CCCC1C(=O)N([C@H]1CCC[C@@H]1OCc1ccccc1)C2` (stereo partly drawn) [Compound 78]: 4.1 µM; `CCOC1C2CCCC(C(=O)N1Cc1ccc(OC)cc1)N2C(=O)C(=O)c1cc(OC)c(OC)c(OC)c1` (stereo not drawn) [Compound 79]: 0.7 µM. As for `COc1ccc(CN2C(=O)C3CCCC(C2C#N)N3C(=O)C(=O)c2cc(OC)c(OC)c(OC)c2)cc1` (stereo not drawn) [Compound 80], the Ki turned out to be 1.8 µM. Same read-out and setting: the value for `CCC(CC)(COC(=O)COC)C(=O)C(=O)N1C2CCCC1C(=O)N(CCCCc1ccccc1)C2` (stereo not drawn) [Compound 81] was 1.1 µM; that for `COc1ccc2c(c1)C1C3CCCC(C(=O)N1CC2)N3C(=O)C(=O)C1(COC(C)=O)CCCC1` (stereo not drawn) [Compound 82] was 3 µM. On the same count and under the same terms, the value for `CCC(CC)(COCOC)C(=O)C(=O)N1C2CCCC1C(=O)N(CCCCc1ccccc1)C2` (stereo not drawn) [Compound 83] was 0.86 µM. Take `COCC(=O)OCC1(C(=O)C(=O)N2C3CCCC2C(=O)N(CCCCc2ccccc2)C3)CCCC1` (stereo not drawn) [Compound 84]: the Ki came to 0.134 µM.

As to `COCOCC1(C(=O)C(=O)N2C3CCCC2C(=O)N(CCCCc2ccccc2)C3)CCCC1` (stereo not drawn) [Compound 85], the Ki was 0.324 µM.

Regarding `CC(=O)OCC1(C(=O)C(=O)N2C3CCCC2C(=O)N(CCCCc2ccccc2)C3)CCCCC1` (stereo not drawn) [Compound 86], the Ki amounted to 1.3 µM. `CCC(C)(C)C(=O)C(=O)N1C2CCCC1C1c3cccc(OC)c3CCN1C2=O` (stereo not drawn) [Compound 87]: the Ki turned out to be 5 µM.

Consider `O=C1C2CCCC(CN1CCCCc1ccccc1)N2C(=O)C(=O)C1(O)CCCC1` (stereo not drawn) [Compound 95], for which the Ki was 1.2 µM. The same measure, in the same setting: next, `COc1cc(C(=O)C(=O)N2C3CCCC2C2OCCN2C3=O)cc(OC)c1OC` (stereo not drawn) [Compound 96]: 1.4 µM. The same measure, in the same setting: next, `CCC(C)(C)C(=O)C(=O)N1C2CCCC1[C@@H]1OCCN1C2=O` (stereo partly drawn) [Compound 97]: 9 µM; `COCCOC1(C(=O)C(=O)N2C3CCCC2C(=O)N(CCCCc2ccccc2)C3)CCCC1` (stereo not drawn) [Compound 98]: 0.772 µM; `CO[C@@H](C)[C@@H]1CC[C@@H](C)[C@](O)(C(=O)C(=O)N2C3CCCC2C(=O)N(CCCCc2ccccc2)C3)C1` (stereo partly drawn) [Compound 99]: 3.7 µM.

For the compound `COC1(C(=O)C(=O)N2C3CCCC2C(=O)N(CCCCc2ccccc2)C3)CCCC1` (stereo not drawn) [Compound 100], the Ki amounted to 0.627 µM. The same measure, in the same setting: next, `COCC(=O)OC1(C(=O)C(=O)N2C3CCCC2C(=O)N(CCCCc2ccccc2)C3)CCCC1` (stereo not drawn) [Compound 101]: 1.4 µM; `COC(OC)C(=O)OC1(C(=O)C(=O)N2C3CCCC2C(=O)N(CCCCc2ccccc2)C3)CCCC1` (stereo not drawn) [Compound 102]: 0.69 µM; `COC(COC1(C(=O)C(=O)N2C3CCCC2C(=O)N(CCCCc2ccccc2)C3)CCCC1)OC` (stereo not drawn) [Compound 103]: 1.2 µM.

With `C=CCC(CC=C)C(=O)OC[C@@H](CN1CC2CCCC(C1=O)N2C(=O)C(=O)C1(COC(=O)COC)CCCC1)OCc1ccccc1` (stereo partly drawn) [Compound 108], the Ki came out at 0.061 µM.

Regarding `C=CCC(CC=C)C(=O)OC[C@@H](CN1CC2CCCC(C1=O)N2C(=O)C(=O)C1(COC(C)=O)CCCC1)OCc1ccccc1` (stereo partly drawn) [Compound 109], the Ki came to 0.049 µM. Still for that read-out and setting: the value for `C=CCC(CC=C)C(=O)OC[C@H](CN1CC2CCCC(C1=O)N2C(=O)C(=O)C1(COC(=O)COC)CCCC1)OCc1ccccc1` (stereo partly drawn) [Compound 110] was 0.086 µM; that for `C=CCC(CC=C)C(=O)OC[C@H](CN1CC2CCCC(C1=O)N2C(=O)C(=O)C1(COC(C)=O)CCCC1)OCc1ccccc1` (stereo partly drawn) [Compound 111] was 0.663 µM; that for `COCOC1(C(=O)C(=O)N2C3CCCC2C(=O)N(CCCCc2ccccc2)C3)CCCC1` (stereo not drawn) [Compound 112] was 1 µM. Still for that read-out and setting: next, `COC(CN1C[C@@H]2[C@H]3CCC[C@@H](C(=O)N2CC1=O)N3C(=O)C(=O)C1(OC)CCCC1)OC` [Compound 115]: over 20 µM.
